{"source": "patent US20220401415A1", "about": "“METHODS FOR TREATING NEUROLOGICAL DISORDERS WITH ALPHA1A-AR PARTIAL AGONISTS” (Curasen Therapeutics, Inc., priority 2019, published 2022)", "key": {"[1]": {"system": "neurogenic orthostatic hypotension (nOH) patients", "assay": "Treatment of patients having nOH (Example 1)", "format": "in vivo, human", "details": "5 mg oral tablets twice daily, follow-up after one week of treatment", "procedure": "Patients between the age of 40 and 80 years old that have been diagnosed with symptomatic orthostatic hypotension due to pure autonomic failure, multiple system atrophy or Parkinson's disease (i.e., PD plus symptoms) present for treatment. At the time of presentation, autonomic function testing is conducted to confirm the diagnosis of autonomic dysfunction including sinus arrhythmia and the Valsalva maneuver.\nThe patients are given 5 mg dabuzalgron oral tablets and are instructed to take one tablet shortly after waking up in the morning and a second tablet 4-6 hours later each day.\nSome patients return for a follow-up visit after one week of treatment. […] In the follow-up visit supine systolic blood pressure (SSBP) may be determined."}, "α1A-AR receptor [2]": {"target": "T1, α1A-AR receptor (Homo sapiens, UniProt P35348)", "T1 sequence (P35348 1-466)": "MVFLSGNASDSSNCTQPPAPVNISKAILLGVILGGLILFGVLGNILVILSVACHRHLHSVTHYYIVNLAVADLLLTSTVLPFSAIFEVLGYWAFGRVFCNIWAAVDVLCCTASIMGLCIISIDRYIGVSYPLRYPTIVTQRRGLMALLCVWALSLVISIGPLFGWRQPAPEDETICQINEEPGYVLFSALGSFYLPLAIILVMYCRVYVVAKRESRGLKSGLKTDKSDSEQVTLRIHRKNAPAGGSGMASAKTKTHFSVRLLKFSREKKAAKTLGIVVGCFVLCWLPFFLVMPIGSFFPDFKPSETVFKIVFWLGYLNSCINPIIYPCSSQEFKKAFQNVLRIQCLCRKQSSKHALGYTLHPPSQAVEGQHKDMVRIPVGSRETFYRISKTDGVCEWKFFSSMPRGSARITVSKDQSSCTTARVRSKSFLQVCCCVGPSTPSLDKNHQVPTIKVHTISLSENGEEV", "details": "as compared to noradrenaline; InsPs accumulation assay; Blue et al., Table 1; cited from earlier work"}, "α1A-AR receptor [3]": {"target": "T1, α1A-AR receptor", "details": "as compared to noradrenaline; FLIPR assay; Blue et al., Table 1; cited from earlier work"}}, "note": "Like-named read-outs stand apart in the source and are kept apart here."}
{"smiles": "Cc1c(OCC2=NCCN2)ccc(Cl)c1NS(C)(=O)=O", "note": "[RO 115-1240 (dabuzalgron) free base, N-[6-chloro-3-(4,5-dihydro-1H-imidazol-2-ylmethoxy)-2-methylphenyl]methanesulfonamide]", "values": [{"measurement": "symptoms of nOH as compared to the first visit", "setting": "[1]", "value": "symptoms of nOH improve"}, {"measurement": "intrinsic activity", "setting": "α1A-AR receptor [2]", "value": 0.31}]}
{"smiles": "Cc1c(OCC2=NCCN2)ccc(Cl)c1NS(C)(=O)=O.Cl", "note": "[RO 115-1240 (dabuzalgron) HCl salt, N-[6-chloro-3-(4,5-dihydro-1H-imidazol-2-ylmethoxy)-2-methylphenyl]methanesulfonamide hydrochloride]", "values": [{"measurement": "intrinsic activity", "setting": "α1A-AR receptor [2]", "value": 0.27}, {"measurement": "intrinsic activity", "setting": "α1A-AR receptor [3]", "value": 0.51}]}
